Source: patent publication US7485653B2, “1,4-dihydropyridine compounds, pharmaceutical compositions, and methods for the treatment of cardiovascular disease” (Gilead Sciences, Inc., priority 2003, dated 2009)

Assays:
α-MyHC protein levels = assay: Western blotting of α-MyHC protein in NRVM; format: cell-based, rat; settings: NRVM stimulated 3 days; Compound 1 10 nM to 10 μM
Procedure: FIG. 2 Effect of Compound 1 on α-MyHC protein levels as detected by Western blotting. NRVM are stimulated with Compound 1 at different concentrations for 3 days. Protein extracts are prepared, proteins are separated by SDS-PAGE electrophoresis, transferred to PVDF membrane, and detected with an anti-α-MyHC monoclonal antibody.
As an independent measure of changes in α-MyHC protein levels, NRVM stimulated with Compound 1 were analyzed for α-MyHC protein levels by Western blotting. Protein extracts prepared from NRVM stimulated with a range of concentrations of Compound 1 from 10 nM to 10 μM were separated by SDS-PAGE and transferred to PVDF membrane. Levels of α-MyHC protein were detected by Western blotting using the same anti-α-MyHC monoclonal antibody used in the cytoblot assay. […] This experiment verified that the changes in α-MyHC protein detected in the cytoblot assay were also evident by Western blotting.

[1] = test system: Hypertrophy of NRVM (secretion of atrial natriuretic factor); assay: Anti-hypertrophic activity in NRVM, ANF ELISA (ANF secretion); format: cell-based; settings: Rattus norvegicus, read-out: IC50 of the ANF ELISA (antihypertrophic activity)
Procedure: Anti-hypertrophic Activity of Racemic Compound 1 and the Purified Enantiomers of Compound 1. Neonatal rat ventricular myocytes (NRVM) were isolated from 1 to 3 day-old Sprague-Dawley rats using enzymatic digestion and myocyte enrichment techniques. NRVM were cultured in serum-containing media for 18 hours. For the continuation of culture, serum-free media was used. Hypertrophy of NRVM was induced using pharmacological stimuli, including phenylephrine, endothelin-1, and […]. Hypertrophic responses were determined using methods including the following: measurement of total cellular protein; secretion of atrial natriuretic factor; determination of cell volume; determination of the expression of so-called fetal genes such as atrial natriuretic factor, beta-myosin heavy chain and alpha-skeletal actin. ANF secretion was the most sensitive assay for measuring hypertrophy, and the IC50 of the ANF ELISA was the measurement used to determine antihypertrophic activity.

[2] = test system: α-myosin heavy chain (α-MyHC) protein levels; assay: α-MyHC cytoblot assay in neonatal rat ventricular myocytes (NRVM); format: cell-based
Procedure: FIG. 1 Concentration-dependent effect of Compound 1 on αMyHC protein levels in the cytoblot assay. NRVM are cultured for 3 days in serum-free medium in the presence of differing amounts of Compound 1. At the end of the culture period, NRVM are fixed and analyzed for α-MyHC protein levels using the BA-G5 monoclonal antibody specific for α-MyHC. Results are collected as RLU using a Packard Fusion Plate reader, and normalized to the signal from samples cultured in the absence of compound (control, set to 100%).
Preparation and culture of neonatal rat ventricular myocytes (NRVM) was performed by removing hearts from 1-3 day old rat neonatal pups, along with the atria and lungs. The ventricles were cut into smaller pieces and digested 3 times with collagenase for 20-30 min at 37° C. The myocytes were then separated from other cell types using a Percoll gradient. The myocyte layer was collected, washed 2 times, and plated on tissue culture grade 10 cm Petri dishes for 1-2 hrs. The non-adherent cells (myocytes) were removed and plated in Costar clear view 96 well plates coated with 0.2% gelatin for at least 2 hrs. The gelatin solution was removed, and the myocytes were resuspended in DMEM high glucose media (Mediatech) containing 10% charcoal/dextran treated FBS (Hyclone) and 1% Penicillin-Streptomycin-Glutamine (PSG, Gibco). Ten thousand NRVM were plated per well in a 100 μl volume, and incubated overnight at 37° C. in 5% CO2 in air. The following day, the media was replaced with 100 μl of serum-free DMEM high glucose medium supplemented with PSG and 0.3% Nutridoma-SP (Roche).
Compounds were reconstituted in DMSO at 30 mM, and aliquots were stored at −20° C. A 1:1000 dilution was prepared in serum-free DMEM medium supplemented with PSG and 0.3% Nutridoma, and sonicated for 5 min at room temperature. After sonication, additional 3 fold dilutions were prepared in the same medium. Diluted compound was then added to the NRVM cultures in a volume of 100 μl. […]
For the α-MyHC cytoblot assay, NRVM cultures were analyzed for α-MyHC protein levels after 3 days of incubation. […] Excess antibody was removed with 3 PBS washes, and a chemiluminescent substrate was added (Pierce SuperSignal West Pico Chemiluminscent Substrate) for 5 min before quantitation on a Packard Fusion Plate Reader.
As shown above in Table 1, Compound 1 increased α-MyHC protein levels as determined by an α-MyHC cytoblot assay. […] After 3 days of incubation with NRVM, α-MyHC protein levels were detected in the cytoblot assay and quantitated (FIG. 1). […] An increase in α-MyHC protein levels was first detected beginning at 30 nM, with a maximal response observed at 3 μM. […]

CC(=O)C1=C(C)NC(SCC(=O)c2cccc([N+](=O)[O-])c2)=C(C#N)C1c1ccccc1Cl (racemic) [Compound 1]
α-MyHC protein levels by Western blotting (α-MyHC protein levels): increasing amounts of α-MyHC protein were observed with increasing amounts of Compound 1 | IC50 [1]: 427 nM | % increase of a-MyHC over baseline at 10 mM Cpd ([2]; 3 days incubation): 206% | concentration at which an increase in α-MyHC protein levels was first detected ([2]; 3 days, tested 3 nM to 30 μM): 30 nM | concentration of maximal response (α-MyHC protein levels) ([2]; 3 days, tested 3 nM to 30 μM): 3 µM | EC50 ([2]; Rattus norvegicus, Ventricular myocyte, 72 h, 3 days, average of six independent experiments, read-out: concentration that gave a half-maximal response (α-MyHC protein levels)): 60 nM
